{"source": "patent EP3184514A1", "about": "“AUTOPHAGY INHIBITORS” (Deutsches Krebsforschungszentrum, priority 2015, dated 2017)", "key": {"[1]": {"biological_target": "T1, GST-tagged LC3B (Homo sapiens, UniProt Q9GZQ8)", "T1 construct": "made in house; host or cells: E. coli Rosetta (DE3)", "assay": "GST-pulldown with purified GST-LC3B and lysates of treated cells", "conditions": "HEK293T cells treated 100 µM, 1 hour; remaining binding compared to DMSO control", "procedure": "A gene encoding for human LC3B protein inserted in a pET-GST expression vector was used as a template. Rosetta (DE3) competent cells were transformed by started procedure, plated on an LB agar plate with ampicillin (100 µg/ml) and left overnight at 37 °C. Overnight culture was prepared from a single colony and shaken at 180 rpm at 37 °C. LB medium with ampicillin was inoculated with overnight culture (10 ml per 500 ml of LB) and shaken until the optical density at 600 nm (OD600) reached a value of approximately 0.6. Protein expression was then induced with 400 µM IPTG and further incubated for 4 hours. Bacterial culture was centrifuged for 20 minutes at 6000 rpm at 4 °C. The pellet was then resuspended in lysis buffer (20 mM TRIS-HCl pH 7.5, 10 mM EDTA, 5 mM EGTA, 150 mM NaCl, 0.5 % NP40, 1 % Triton X-100, 1 mM DTT, 2 mg/ml lysozyme, 0.05 U/µl benzonase, 1x protease inhibitor cocktail). Lysate was then stored at -20 °C over night. Sample was thawed in water bath and sonicated on ice (40 % amplitude, 30 seconds pulse/30 seconds pause cycle). Lysate was centrifuged at 10000xg at 4 °C for half an hour. Meanwhile, 500 µl of glutathione sepharose beads was equilibrated with lysis buffer and then added to the supernatant. The mixture was incubated and rotated at room temperature for 2 hours. After binding of the protein to the beads, beads were spun down at 500xg at 4 °C for 5 minutes. […]"}, "[2]": {"tested_on": "PANC1", "assay": "MTT cell viability assay", "assay_type": "cell-based", "conditions": "72 and 96 hours", "procedure": "(§1) The MTT assay is a colorimetric assay for assessing cell viability. NAD(P)H-dependent cellular oxidoreductase enzymes in metabolic active cells reduce the tetrazolium dye MTT 3-(4,5-dimethylthiazol-2-yl)-2,5-diphenyltetrazolium bromide to its insoluble purple formazan. All cell types were seeded in 96 well plates and left over night for attachment. Next day, cells were treated with 100 µM compound I-1 for 24, 48, 72, and 96 hours. For controls, 1 µM staurosporine and 100 nM BafA1 were used. The assay was performed according to manufacturer's instructions and the absorbance of the formazan product was measured at 595 nm."}, "[3]": {"tested_on": "HCT116", "assay": "MTT cell viability assay", "assay_type": "cell-based", "conditions": "72 and 96 hours", "procedure": "as §1"}, "[4]": {"tested_on": "A549", "assay": "MTT cell viability assay", "assay_type": "cell-based", "procedure": "as §1"}, "[5]": {"tested_on": "U2OS cells", "assay": "MTT cell viability assay", "assay_type": "cell-based, Human", "procedure": "as §1"}, "[6]": {"tested_on": "LC3B", "assay": "NMR titration (1H-15N HSQC, chemical shift perturbations)", "assay_type": "binding", "conditions": "10 fold excess of compound, before prolonged incubation"}, "[7]": {"tested_on": "LC3B", "assay": "cellular autophagy screening: LC3B spots by immunocytochemistry and automated confocal imaging", "assay_type": "cell-based", "conditions": "Table 1-a; relative to negative DMSO control; 100 µM, 1 hour; n.e. means no effect", "procedure": "For screening purposes, cells were seeded in 384 well plates and left over night for attachment.\nAfterwards, medium was removed and 4 % (w/v) paraformaldehyde (PFA) in PBS buffer was added to the cells for 20 minutes, incubated at room temperature. Cells were permeabilized with 0.1 % (v/v) Triton X-100 for 10 min at room temperature and washed with PBS. Cells were blocked with 3 % (w/v) bovine serum albumin (BSA) in PBS for 45 minutes at 37 °C and then incubated with anti-LC3B (PM036, MBL) or anti-p62 (PM045 or M162-3, MBL) primary antibody diluted in 0.3 % BSA (1:2000 or 1:500) for 1.5-2 hours at 37 °C. Cells were washed three times with PBS.\n384 well plates were then analyzed with an automated confocal microscope Opera (PerkinElmer) enabling high throughput high content screening image analysis. […] A water immersion 60x objective was used for optical slicing and stacking (5x0.5 µm stacks). […] Signal was detected with a fast gated CCD camera. Acapella software (PerkinElmer) is an algorithm based high content imaging and analysis software used in multi-parametric multiplex assays. Acapella was used to follow cell viability (i.e. number of cells) and the number of LC3B and p62 spots per cell.\nThe LC3B protein is a ubiquitin-like protein that can be conjugated to phosphatidylethanolamine (PE) in the membrane of the incipient autophagosome. The nonlipidated and lipidated forms are usually referred to as LC3B-I and LC3B-II, respectively. […] Autophagic flux is often inferred on the basis of LC3B-II turnover, measured by western blot (WB) or immunofluorescence (IF) in the presence and absence of lysosomal degradation. […] Lysosomal degradation can be prevented e.g. through the use of compounds that neutralize the lysosomal pH such as Bafilomycin A1 (BafA1) or chloroquine (CQ). […] An additive or supra-additive effect in LC3B-II levels (WB) and LC3B-positive punctae numbers (IF) may indicate that the treatment enhances autophagic flux. […] This assay can be complemented by simultaneous monitoring of autophagosomal substrates or autophagosomal substrate receptors (e.g. SQSTM1/p62) by WB and/or IF. For example, an increase in LC3B-II levels in combination with the accumulation of SQSTM1/p62 is indicative of a blockage of the autophagy pathway at terminal stages."}}}
{"smiles": "Brc1ccc(CSC2=NCN(Cc3cccnc3)CN2)cc1", "note": "[Compound I-1, 6-((4-bromobenzyl)thio)-3-(pyridin-3-ylmethyl)-1,2,3,4-tetrahydro-1,3,5-triazine]", "values": [{"measurement": "binding of p62 and ATG13 to GST-tagged LC3B", "setting": "[1]", "result": "approximately 50%"}, {"measurement": "reduced cell viability", "setting": "[2]", "result": "approximately 50%"}, {"measurement": "cell survival", "setting": "[3]", "result": "almost no cell survival"}, {"measurement": "reduced cell viability", "setting": "[4]; 72 and 96 hours", "result": "approximately 50%"}, {"measurement": "cell viability", "setting": "[4]; 48 hours", "result": "unaffected"}, {"measurement": "cell survival", "setting": "[5]; 72 and 96 hours", "result": "almost no cell survival"}, {"measurement": "cell viability", "setting": "[5]; 24 hours, 100 µM", "result": "decreased viability"}, {"measurement": "chemical shift perturbations (CSP) of LC3B", "setting": "[6]", "result": "does not induce any significant CSPs"}, {"measurement": "LC3B inhibition cell based Fold increase of LC3B spots [DMSO control 1.0]", "setting": "[7]", "result": 4.9}]}
